Assay results: paper PMC7751175, “Lateral Gene Transfer Acts As an Evolutionary Shortcut to Efficient C4 Biochemistry” (Molecular Biology and Evolution, 2020)

Legend:
Assay in all cases: malate dehydrogenase-coupled NADH oxidation at […] nm; nonlinear regression
Conditions in all cases: co-substrate bicarbonate, 5 mM MgCl2, 50 mM Tris-HCl pH 7.4, 25 °C; read-out: KM(PEP)
[1] = tested on: isoform 11, ppc-1P3_LGT:A PEPC (AUS1-01); assay type: biochemical, Alloteropsis semialata
[2] = tested on: isoform 7, Donor_M ppc-1P3_M PEPC; assay type: biochemical, Megathyrsus maximus
[3] = tested on: isoform 1, non-C4 ppc-1P6 PEPC (RSA5-03); assay type: biochemical, Alloteropsis semialata
[4] = tested on: isoform 5, native co-opted ppc-1P3 PEPC (MAD1-03); assay type: biochemical, Alloteropsis semialata
[5] = tested on: isoform 8, ppc-1P3_LGT:M PEPC (A. cimicina); assay type: biochemical, Alloteropsis cimicina
[6] = tested on: isoform 6, native co-opted ppc-1P3 PEPC (AANG4-8); assay type: biochemical, Alloteropsis angusta
[7] = tested on: isoform 12, Donor_C ppc-1P3_C PEPC; assay type: biochemical, Setaria barbata
[8] = tested on: isoform 2, native co-opted ppc-1P6 PEPC (TPE1-10); assay type: biochemical, Alloteropsis semialata
[9] = tested on: isoform 10, Donor_A ppc-1P3_A PEPC; assay type: biochemical, Themeda triandra

Km [1]: 699 ± 50.4 µM
Km [2]: 921 ± 99.1 µM
Km [3]: 319 ± 33.5 µM
Km [4]: 188 ± 12.5 µM
Km [5]: 710 ± 47.2 µM
Km [6]: 324 ± 23.3 µM
Km [7]: 612 ± 55.9 µM
Km [8]: 196 ± 12.9 µM
Km [9]: 687 ± 72.8 µM
Structure (SMILES): C=C(OP(=O)(O)O)C(=O)O [PEP]
